From BindingDB's records for doi:10.1021/ml300172p (2012)

test: Inhibition of human Shh-induced mouse C3H10T1/2 cell differentiation after 48 hrs by alkaline phosphatase reporter assay

| SMILES | IC50 [µM] |
| --- | --- |
| O=C(C[C@@H]1C/C=C/CCC(=O)O[C@H](c2ccccc2)CNC1=O)NCc1ccc(Cl)cc1 [N-(4-chlorobenzyl)-2-((2R,6S,E)-5,12-dioxo-2-phenyl-1-oxa-4-azacyclododec-8-en-6-yl)acetamide] | > 25 |
| CC1=C2C[C@H]3[C@@H](CC=C4C[C@@H](O)CC[C@@]43C)[C@@H]2CC[C@]12O[C@@H]1C[C@H](C)CN[C@H]1[C@H]2C | 0.6 |

test: Inhibition of Smo in mouse C3H10T1/2 cells assessed as inhibition of human Shh-induced cell differentiation after 48 hrs by alkaline phosphatase reporter assay

| IC50 [µM] | SMILES |
| --- | --- |
| > 25 | C=CCCC(=O)O[C@@H](CNC(=O)[C@@H](CC=C)CC(=O)NCc1ccc(Cl)cc1)c1ccccc1 |
| > 25 | O=C(C[C@@H]1C/C=C/CCC(=O)N[C@@H]2c3ccccc3C[C@@H]2OC1=O)NCc1ccc(Cl)cc1 |
| 7 | CC(C)(C)OC(=O)C[C@@H]1C/C=C/CCC(=O)N[C@H](c2ccccc2)COC1=O |
| 8 | C[C@H]1[C@@H](c2ccccc2)OC(=O)CC/C=C/C[C@@H](CC(=O)NCc2ccc(Cl)cc2)C(=O)N1C |
| > 10 | CCCC[C@@H]1COC(=O)[C@H](CC(=O)NCc2ccc(Cl)cc2)C/C=C/CCC(=O)N1 |
| > 25 | C[C@@H]1C/C=C/CCC(=O)N[C@H](c2ccccc2)COC1=O |
| > 25 | CC(C)N[C@H]1C/C=C/C[C@@H](CC(=O)NCc2ccc(Cl)cc2)C(=O)NC[C@@H](c2ccccc2)OC1=O |
| 15 | C[C@@H]1NC(=O)[C@H](CC(=O)NCc2ccc(Cl)cc2)C/C=C/CCC(=O)O[C@@H]1c1ccccc1 |
| > 25 | CN1CCN(C(=O)C[C@@H]2C/C=C/CCC(=O)O[C@H](c3ccccc3)CNC2=O)CC1 |
| > 25 | O=C(C[C@@H]1C/C=C/CCC(=O)OCCNC1=O)NCc1ccc(Cl)cc1 [(S,E)-N-(4-chlorobenzyl)-2-(5,12-dioxo-1-oxa-4-azacyclododec-8-en-6-yl)acetamide] |
| > 25 | CC(=O)N[C@@H]1C/C=C/CCC(=O)N[C@H](c2ccccc2)COC1=O |
| 15 | O=C(C[C@@H]1C/C=C/CCC(=O)OC[C@@H]2CCCN2C1=O)NCc1ccc(Cl)cc1 |
| 4 | O=C(C[C@@H]1C/C=C/CCC(=O)O[C@H](c2ccccc2)CNC1=O)NCCCC(F)(F)F |
| 5 | O=C(C[C@@H]1C/C=C/CCC(=O)O[C@H](c2ccccc2)CNC1=O)NCc1cccc(Cl)c1 |
| 8 | C[C@H]1C/C=C/C[C@@H](CC(=O)NCc2ccc(Cl)cc2)C(=O)OC[C@@H](c2ccccc2)NC1=O |
| 8 | CN1C[C@@H](c2ccccc2)OC(=O)CC/C=C/C[C@@H](Cc2ccc(Cl)cc2)C1=O |
| 11 | C[C@H]1NC(=O)[C@H](CC(=O)NCc2ccc(Cl)cc2)C/C=C/CCC(=O)O[C@@H]1c1ccccc1 |
| 5 | O=C(C[C@@H]1C/C=C/CCC(=O)N[C@H](C2CCCCC2)COC1=O)NCc1ccc(Cl)cc1 |
| 5 | O=C(C[C@@H]1C/C=C/CCC(=O)N[C@H](c2ccccc2)COC1=O)NCc1ccc(Cl)cc1 |
| > 25 | O=C(CN1C/C=C/CCC(=O)N[C@H](c2ccccc2)COC1=O)NCc1ccc(Cl)cc1 |
| 5 | O=C(C[C@@H]1C/C=C/CCC(=O)N[C@H](c2ccc(F)cc2)COC1=O)NCc1ccc(Cl)cc1 |
| 6 | O=C(C[C@@H]1C/C=C/C[C@H](Cc2ccccc2)C(=O)N[C@H](c2ccccc2)COC1=O)NCc1ccc(Cl)cc1 |
| 20 | O=C(C[C@@H]1C/C=C/CCC(=O)N[C@@H](c2ccccc2)COC1=O)NCc1ccc(Cl)cc1 |
| 23 | CC(C)[C@@H]1COC(=O)[C@H](CC(=O)NCc2ccc(Cl)cc2)C/C=C/CCC(=O)N1 |
| 11 | C[C@H]1[C@@H](c2ccccc2)OC(=O)CCCCC[C@@H](CC(=O)NCc2ccc(Cl)cc2)C(=O)N1C |
| 4 | C[C@H]1C/C=C\C[C@@H](CC(=O)NCc2ccc(Cl)cc2)C(=O)OC[C@@H](c2ccccc2)NC1=O |

| SMILES | IC50 [µM] |
| --- | --- |
| O=C(C[C@@H]1C/C=C/CCC(=O)N[C@H](c2ccc(Cl)cc2)COC1=O)NCc1ccc(Cl)cc1 | 0.6 |
| O=C(C[C@@H]1C/C=C/CCC(=O)N[C@H](Cc2ccccc2)COC1=O)NCc1ccc(Cl)cc1 | 4 |
